Assay results as given in paper PMC5623949, “Exploiting the 2-Amino-1,3,4-thiadiazole Scaffold To Inhibit Trypanosoma brucei Pteridine Reductase in Support of Early-Stage Drug Discovery” (ACS Omega, 2017).

Molecular target: T1, hDHFR (Homo sapiens, UniProt P00374)
T1 construct: gene DHFR
T1 sequence (P00374 1-187): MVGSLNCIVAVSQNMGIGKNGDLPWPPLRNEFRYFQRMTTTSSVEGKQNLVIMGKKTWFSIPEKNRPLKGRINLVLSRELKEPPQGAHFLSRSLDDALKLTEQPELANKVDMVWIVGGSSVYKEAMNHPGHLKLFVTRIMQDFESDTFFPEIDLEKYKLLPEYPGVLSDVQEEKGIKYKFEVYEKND
Assay: biochemical
Set-up: human DHFR enzyme inhibition
Conditions: not given
Method: Figure 10 Summary heat map of the in vitro assays to determine possible liability issues for all synthesized compounds. Assays were performed to assess inhibition of hERG and five CYP isoforms (1A2, 2C9, 2C19, 2D6, and 3A4), growth inhibition of A549 and W1-38 cell lines, and mitochondrial toxicity at 10 μM. The hDHFR inhibition was determined at 100 μM. The data, expressed as percentage values, were organized by adopting a color code for rapid and intuitive visualization. The ideal compound should have all tiles blue, indicating a safe toxicological profile for progressing into the development pipeline. The cells are colored from blue (100% of cell growth at the tested concentration) to red (0% of cell growth at the tested concentration) for A549 and W1-38 and from blue (0% of inhibitory activity at the tested concentration) to red (100% of inhibitory activity at the tested concentration) for CYP isoforms, hERG, hDHFR, and mitochondrial toxicity.

SMILES	inhibition at 100 µM
C[C@@H](c1cccc(C(=O)c2ccccc2)c1)c1nnc(N)s1 [3f]	51%
Nc1nnc(NCCc2ccccc2)s1 [4n]	19%
N#Cc1ccc(CNc2nnc(N)s2)cc1 [4h]	17%
Nc1cccc(-c2nnc(N)s2)c1 [1j]	18%
COc1ccc(-c2cccc(-c3nnc(N)s3)c2)cc1OC [2f]	28%

Molecular target: T2, hERG (Homo sapiens, UniProt Q12809)
T2 construct: gene KCNH2
Assay: not given
Set-up: hERG inhibition liability assay
Conditions: not given
Method: (§1) Independent of the effect of any antiparasitic potential of compounds, they were evaluated using a panel of early-toxicity assays comprising cytotoxicity (A549, human lung adenocarcinoma epithelial cell line and WI-38, human lung fibroblasts), mitochondrial toxicity (786-O, human renal carcinoma cell line), hERG inhibition,[31] cytochrome P450 inhibition (CYP1A2, CYP2C9, CYP2C19, CYP2D6, and CYP3A4),[31] and Aurora B kinase inhibition. […] For the two compounds active against TbPTR1 (4m and 4o), IC50 against hERG, cytochrome P450, and mitochondrial toxicity were determined (reported in Supporting Information). We observed that the dose of compounds 4m, 4o, 4c, and 3k was 4 μM in the potentiation assays. […] In the case of hERG, CYP2D6, CYP2A9, CYP2C19, and mitochondrial toxicity, there is a selectivity index of around 3–4 fold, thus showing an acceptable profile.  Figure 10 Summary heat map of the in vitro assays to determine possible liability issues for all synthesized compounds. Assays were performed to assess inhibition of hERG and five CYP isoforms (1A2, 2C9, 2C19, 2D6, and 3A4), growth inhibition of A549 and W1-38 cell lines, and mitochondrial toxicity at 10 μM. The hDHFR inhibition was determined at 100 μM. The data, expressed as percentage values, were organized by adopting a color code for rapid and intuitive visualization. The ideal compound should have all tiles blue, indicating a safe toxicological profile for progressing into the development pipeline. The cells are colored from blue (100% of cell growth at the tested concentration) to red (0% of cell growth at the tested concentration) for A549 and W1-38 and from blue (0% of inhibitory activity at the tested concentration) to red (100% of inhibitory activity at the tested concentration) for CYP isoforms, hERG, hDHFR, and mitochondrial toxicity.

T2 sequence (Q12809 whole entry): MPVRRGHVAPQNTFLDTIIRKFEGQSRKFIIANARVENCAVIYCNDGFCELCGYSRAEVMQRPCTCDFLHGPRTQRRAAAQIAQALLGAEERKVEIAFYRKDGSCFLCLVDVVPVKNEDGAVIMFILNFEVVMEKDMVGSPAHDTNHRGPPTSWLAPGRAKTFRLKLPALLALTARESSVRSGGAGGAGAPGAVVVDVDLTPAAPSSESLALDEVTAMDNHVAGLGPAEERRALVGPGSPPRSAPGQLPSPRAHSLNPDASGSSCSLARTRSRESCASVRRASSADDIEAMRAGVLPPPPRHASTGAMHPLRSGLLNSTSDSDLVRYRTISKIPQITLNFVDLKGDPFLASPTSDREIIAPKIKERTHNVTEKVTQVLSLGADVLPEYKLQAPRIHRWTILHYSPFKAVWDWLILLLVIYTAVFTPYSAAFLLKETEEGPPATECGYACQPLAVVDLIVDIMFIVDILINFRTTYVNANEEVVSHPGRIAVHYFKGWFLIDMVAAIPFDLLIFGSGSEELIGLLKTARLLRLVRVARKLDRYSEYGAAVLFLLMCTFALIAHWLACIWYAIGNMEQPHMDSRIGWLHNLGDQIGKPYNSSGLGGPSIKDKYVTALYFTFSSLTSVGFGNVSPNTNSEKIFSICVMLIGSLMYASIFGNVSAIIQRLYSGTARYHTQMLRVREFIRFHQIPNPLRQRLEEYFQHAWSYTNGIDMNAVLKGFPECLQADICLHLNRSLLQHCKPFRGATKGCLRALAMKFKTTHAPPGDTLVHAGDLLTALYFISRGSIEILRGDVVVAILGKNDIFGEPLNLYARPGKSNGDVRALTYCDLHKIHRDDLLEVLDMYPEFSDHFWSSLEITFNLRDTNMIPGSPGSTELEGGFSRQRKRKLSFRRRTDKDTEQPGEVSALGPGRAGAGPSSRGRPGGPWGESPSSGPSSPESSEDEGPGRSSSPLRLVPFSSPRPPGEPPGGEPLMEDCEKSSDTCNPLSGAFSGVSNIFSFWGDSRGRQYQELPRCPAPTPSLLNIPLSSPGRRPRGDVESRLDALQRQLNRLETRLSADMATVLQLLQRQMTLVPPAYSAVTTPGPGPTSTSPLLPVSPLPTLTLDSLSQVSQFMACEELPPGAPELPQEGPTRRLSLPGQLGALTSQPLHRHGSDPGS

SMILES	inhibition at 10 µM
C[C@@H](c1cccc(C(=O)c2ccccc2)c1)c1nnc(N)s1 [3f]	16 ± 6.3%
Nc1nnc(NCCc2ccccc2)s1 [4n]	91.4 ± 6.2%
N#Cc1ccc(CNc2nnc(N)s2)cc1 [4h]	82.6 ± 11.8%
Nc1cccc(-c2nnc(N)s2)c1 [1j]	32.6 ± 34.3%
COc1ccc(-c2cccc(-c3nnc(N)s3)c2)cc1OC [2f]	15.1 ± 4.8%

Test system: not listed separately
Assay: in vitro
Set-up: cytotoxicity, per cent cell growth of WI-38 fibroblasts
Conditions: human, wi-38 cells; read-out: % cell growth W1-38 at 10uM
Method: as §1

SMILES	viability at 10 µM
C[C@@H](c1cccc(C(=O)c2ccccc2)c1)c1nnc(N)s1 [3f]	127 ± 21.4%
Nc1nnc(NCCc2ccccc2)s1 [4n]	66.1 ± 3.1%
N#Cc1ccc(CNc2nnc(N)s2)cc1 [4h]	107 ± 24.9%
Nc1cccc(-c2nnc(N)s2)c1 [1j]	92.5 ± 7.8%
COc1ccc(-c2cccc(-c3nnc(N)s3)c2)cc1OC [2f]	87.5 ± 44.4%

Test system: not listed separately
Assay: in vitro
Set-up: cytotoxicity, per cent cell growth of A549 cells
Conditions: human, a549 cells; read-out: % cell growth A549 at 10uM
Method: as §1

SMILES	viability at 10 µM
C[C@@H](c1cccc(C(=O)c2ccccc2)c1)c1nnc(N)s1 [3f]	134 ± 3.3%
Nc1nnc(NCCc2ccccc2)s1 [4n]	112 ± 5.4%
N#Cc1ccc(CNc2nnc(N)s2)cc1 [4h]	105 ± 2.3%
Nc1cccc(-c2nnc(N)s2)c1 [1j]	134 ± 4.7%
COc1ccc(-c2cccc(-c3nnc(N)s3)c2)cc1OC [2f]	106 ± 4.2%

Molecular target: T3, TbPTR1 (Trypanosoma brucei brucei, UniProt O76290)
T3 construct: made in house
T3 sequence (O76290 1-268): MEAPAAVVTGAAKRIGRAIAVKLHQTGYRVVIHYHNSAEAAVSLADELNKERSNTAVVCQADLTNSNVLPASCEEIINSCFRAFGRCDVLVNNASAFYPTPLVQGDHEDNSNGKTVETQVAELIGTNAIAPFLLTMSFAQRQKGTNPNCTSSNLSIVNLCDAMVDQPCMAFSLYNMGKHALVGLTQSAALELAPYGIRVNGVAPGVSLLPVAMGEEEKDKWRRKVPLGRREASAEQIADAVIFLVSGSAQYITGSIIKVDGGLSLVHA
Assay: biochemical
Conditions: not given

SMILES	times less active than 4o against TbPTR1
Nc1nnc(NCCc2ccccc2)s1 [4n]	about 3 times

Same assay, conditions: 50 μM compound; read-out: % Inhibition TbPTR1 at 50 μM

SMILES	inhibition at 50 µM
C[C@@H](c1cccc(C(=O)c2ccccc2)c1)c1nnc(N)s1 [3f]	47.2 ± 0.4%
Nc1nnc(NCCc2ccccc2)s1 [4n]	36.7 ± 2%
N#Cc1ccc(CNc2nnc(N)s2)cc1 [4h]	34.6 ± 3%
Nc1cccc(-c2nnc(N)s2)c1 [1j]	27 ± 0.4%
COc1ccc(-c2cccc(-c3nnc(N)s3)c2)cc1OC [2f]	8.6 ± 0.6%

Same assay, conditions: dose-response 0.001-100 μM

SMILES	IC50
Nc1nnc(NCCc2ccccc2)s1 [4n]	62 µM
N#Cc1ccc(CNc2nnc(N)s2)cc1 [4h]	70 µM

Test system: 786-O
Assay: cells
Set-up: mitochondrial toxicity in 786-O renal carcinoma cells
Conditions: Homo sapiens, 786-0; mitochondrial toxicity
Method: as §1

SMILES	inhibition at 10 µM
C[C@@H](c1cccc(C(=O)c2ccccc2)c1)c1nnc(N)s1 [3f]	-3.4 ± 2.1%
N#Cc1ccc(CNc2nnc(N)s2)cc1 [4h]	-0.1 ± 9.4%
COc1ccc(-c2cccc(-c3nnc(N)s3)c2)cc1OC [2f]	1.6 ± 14.4%

Molecular target: CYP2C19 (Homo sapiens, UniProt P33261)
Assay: in vitro
Set-up: cytochrome P450 isoform inhibition liability assay
Conditions: not given
Method: as §1

Chain of CYP2C19 (P33261 whole entry): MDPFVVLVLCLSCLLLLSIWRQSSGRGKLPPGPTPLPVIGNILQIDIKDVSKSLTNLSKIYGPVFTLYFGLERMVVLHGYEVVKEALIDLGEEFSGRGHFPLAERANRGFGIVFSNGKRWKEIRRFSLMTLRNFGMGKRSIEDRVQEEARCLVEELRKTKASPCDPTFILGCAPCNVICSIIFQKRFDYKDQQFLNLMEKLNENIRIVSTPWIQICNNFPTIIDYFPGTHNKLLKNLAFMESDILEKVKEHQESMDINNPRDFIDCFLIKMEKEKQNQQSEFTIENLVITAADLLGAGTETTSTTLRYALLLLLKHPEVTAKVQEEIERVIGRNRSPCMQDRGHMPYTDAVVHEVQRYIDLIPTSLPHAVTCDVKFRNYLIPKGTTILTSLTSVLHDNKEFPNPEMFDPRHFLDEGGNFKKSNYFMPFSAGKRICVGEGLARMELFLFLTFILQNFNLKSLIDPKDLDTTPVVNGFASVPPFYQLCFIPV

SMILES	inhibition at 10 µM
C[C@@H](c1cccc(C(=O)c2ccccc2)c1)c1nnc(N)s1 [3f]	39.3 ± 3.2%
Nc1nnc(NCCc2ccccc2)s1 [4n]	29.2 ± 6.6%
N#Cc1ccc(CNc2nnc(N)s2)cc1 [4h]	-2 ± 6.3%
Nc1cccc(-c2nnc(N)s2)c1 [1j]	-45.8 ± 11.8%

Molecular target: CYP3A4 (Homo sapiens, UniProt P08684)
Assay: in vitro
Set-up: cytochrome P450 isoform inhibition liability assay
Conditions: not given
Method: as §1

Chain of CYP3A4 (P08684 whole entry): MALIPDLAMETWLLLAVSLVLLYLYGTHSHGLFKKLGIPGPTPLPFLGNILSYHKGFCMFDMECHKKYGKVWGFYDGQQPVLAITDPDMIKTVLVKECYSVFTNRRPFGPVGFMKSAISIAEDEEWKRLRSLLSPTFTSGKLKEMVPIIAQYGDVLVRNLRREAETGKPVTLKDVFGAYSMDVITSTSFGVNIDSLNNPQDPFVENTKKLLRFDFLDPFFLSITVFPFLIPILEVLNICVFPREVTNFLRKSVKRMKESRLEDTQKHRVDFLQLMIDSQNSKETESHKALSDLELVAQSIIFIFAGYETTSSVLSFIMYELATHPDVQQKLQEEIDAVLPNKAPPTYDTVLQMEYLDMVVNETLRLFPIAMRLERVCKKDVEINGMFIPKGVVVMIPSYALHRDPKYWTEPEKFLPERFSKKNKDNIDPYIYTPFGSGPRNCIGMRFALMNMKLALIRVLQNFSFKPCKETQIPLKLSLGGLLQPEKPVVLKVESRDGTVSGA

SMILES	inhibition at 10 µM
C[C@@H](c1cccc(C(=O)c2ccccc2)c1)c1nnc(N)s1 [3f]	94.5 ± 0.8%
Nc1nnc(NCCc2ccccc2)s1 [4n]	25.1 ± 4.3%
N#Cc1ccc(CNc2nnc(N)s2)cc1 [4h]	7.2 ± 12.7%
Nc1cccc(-c2nnc(N)s2)c1 [1j]	-14.9 ± 3.9%
COc1ccc(-c2cccc(-c3nnc(N)s3)c2)cc1OC [2f]	48.3 ± 2.4%

Molecular target: CYP2D6 (Homo sapiens, UniProt P10635)
Assay: in vitro
Set-up: cytochrome P450 isoform inhibition liability assay
Conditions: not given
Method: as §1

Chain of CYP2D6 (P10635 whole entry): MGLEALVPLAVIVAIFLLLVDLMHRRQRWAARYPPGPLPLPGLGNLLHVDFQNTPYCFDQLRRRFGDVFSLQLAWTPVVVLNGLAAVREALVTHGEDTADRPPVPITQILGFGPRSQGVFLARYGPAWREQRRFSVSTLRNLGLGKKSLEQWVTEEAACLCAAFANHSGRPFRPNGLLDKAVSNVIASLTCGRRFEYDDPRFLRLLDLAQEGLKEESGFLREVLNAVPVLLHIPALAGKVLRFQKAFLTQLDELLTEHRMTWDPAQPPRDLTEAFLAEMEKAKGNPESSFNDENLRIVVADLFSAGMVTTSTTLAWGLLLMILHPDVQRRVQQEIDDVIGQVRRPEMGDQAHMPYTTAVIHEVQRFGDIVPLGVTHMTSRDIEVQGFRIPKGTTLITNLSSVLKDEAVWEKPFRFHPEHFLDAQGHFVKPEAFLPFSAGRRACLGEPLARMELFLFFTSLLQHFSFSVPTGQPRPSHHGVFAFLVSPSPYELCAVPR

SMILES	inhibition at 10 µM
C[C@@H](c1cccc(C(=O)c2ccccc2)c1)c1nnc(N)s1 [3f]	-12.7 ± 6.2%
Nc1nnc(NCCc2ccccc2)s1 [4n]	103 ± 0.2%
N#Cc1ccc(CNc2nnc(N)s2)cc1 [4h]	62.4 ± 2.9%
Nc1cccc(-c2nnc(N)s2)c1 [1j]	-51 ± 8.9%
COc1ccc(-c2cccc(-c3nnc(N)s3)c2)cc1OC [2f]	19.2 ± 3.5%

Molecular target: T4, CYP1A2 (Homo sapiens, UniProt P05177)
T4 sequence (P05177 1-516): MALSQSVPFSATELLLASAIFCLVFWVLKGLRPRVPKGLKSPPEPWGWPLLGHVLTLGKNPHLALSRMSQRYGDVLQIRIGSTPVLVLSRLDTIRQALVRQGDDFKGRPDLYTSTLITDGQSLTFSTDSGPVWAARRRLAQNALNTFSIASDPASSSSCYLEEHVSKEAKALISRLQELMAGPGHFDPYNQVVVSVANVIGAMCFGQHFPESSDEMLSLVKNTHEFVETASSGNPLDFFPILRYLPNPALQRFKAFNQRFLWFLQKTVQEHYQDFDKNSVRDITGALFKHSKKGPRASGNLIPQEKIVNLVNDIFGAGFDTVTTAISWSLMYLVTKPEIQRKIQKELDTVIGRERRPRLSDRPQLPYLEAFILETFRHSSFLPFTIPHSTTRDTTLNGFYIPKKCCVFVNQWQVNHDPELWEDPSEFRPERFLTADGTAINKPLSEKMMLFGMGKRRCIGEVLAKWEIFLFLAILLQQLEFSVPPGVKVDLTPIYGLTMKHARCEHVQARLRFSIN
Assay: in vitro
Set-up: cytochrome P450 isoform inhibition liability assay
Conditions: not given
Method: as §1

SMILES	inhibition at 10 µM
C[C@@H](c1cccc(C(=O)c2ccccc2)c1)c1nnc(N)s1 [3f]	-14.2 ± 7.1%
Nc1nnc(NCCc2ccccc2)s1 [4n]	22.7 ± 1.9%
N#Cc1ccc(CNc2nnc(N)s2)cc1 [4h]	17.1 ± 4.4%
Nc1cccc(-c2nnc(N)s2)c1 [1j]	5.3 ± 5.1%
COc1ccc(-c2cccc(-c3nnc(N)s3)c2)cc1OC [2f]	92.8 ± 1.9%

Molecular target: CYP2C9 (Homo sapiens, UniProt P11712)
Assay: in vitro
Set-up: cytochrome P450 isoform inhibition liability assay
Conditions: not given
Method: as §1

Chain of CYP2C9 (P11712 whole entry): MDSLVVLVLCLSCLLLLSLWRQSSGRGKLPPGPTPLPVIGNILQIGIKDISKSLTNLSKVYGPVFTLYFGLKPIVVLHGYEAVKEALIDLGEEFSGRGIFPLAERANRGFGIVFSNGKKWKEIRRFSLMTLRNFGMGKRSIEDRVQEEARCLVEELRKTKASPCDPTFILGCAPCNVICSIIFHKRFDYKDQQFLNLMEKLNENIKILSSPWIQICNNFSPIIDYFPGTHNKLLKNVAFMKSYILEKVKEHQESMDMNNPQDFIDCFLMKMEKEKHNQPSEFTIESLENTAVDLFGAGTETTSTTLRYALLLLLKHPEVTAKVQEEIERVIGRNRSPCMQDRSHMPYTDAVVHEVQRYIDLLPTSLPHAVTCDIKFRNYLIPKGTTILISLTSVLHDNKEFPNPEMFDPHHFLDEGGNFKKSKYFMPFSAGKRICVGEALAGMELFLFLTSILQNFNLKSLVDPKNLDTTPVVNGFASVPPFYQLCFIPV

SMILES	inhibition at 10 µM
Nc1nnc(NCCc2ccccc2)s1 [4n]	30.4 ± 2.9%
N#Cc1ccc(CNc2nnc(N)s2)cc1 [4h]	15 ± 1.4%
Nc1cccc(-c2nnc(N)s2)c1 [1j]	-20.2 ± 7.3%
COc1ccc(-c2cccc(-c3nnc(N)s3)c2)cc1OC [2f]	53.2 ± 1.6%

Test system: T. b. brucei Lister 427 bloodstream forms
Assay: In vitro activity against T. brucei (HTS SYBR Green I growth inhibition assay)
Type: cell-based, Trypanosoma brucei brucei
Conditions: Trypanosoma brucei, 50 μM; standard deviation within ±10% of the value; read-out: % Inhibition T. brucei at 50 μM

SMILES	inhibition at 50 µM
C[C@@H](c1cccc(C(=O)c2ccccc2)c1)c1nnc(N)s1 [3f]	88%
Nc1nnc(NCCc2ccccc2)s1 [4n]	4%
N#Cc1ccc(CNc2nnc(N)s2)cc1 [4h]	< 0%
Nc1cccc(-c2nnc(N)s2)c1 [1j]	1%
COc1ccc(-c2cccc(-c3nnc(N)s3)c2)cc1OC [2f]	9.5%

Same assay, conditions: Trypanosoma brucei, standard deviation within ±10% of the value; read-out: EC50 T. brucei

SMILES	EC50
C[C@@H](c1cccc(C(=O)c2ccccc2)c1)c1nnc(N)s1 [3f]	20 µM
